# According to ChEMBL document CHEMBL5247589, “Natural occurrence, bioactivity, and biosynthesis of triene-ansamycins” (Eur J Med Chem, 2022):
# pIC50: −log10 of the molar value.
# How the values were obtained:
# NCI-H1299 = assay: Antiproliferative activity against human H1299 cells incubated for 72 hrs by absorbance based assay; assay type: functional, cell-based; conditions: NCI-H1299, 72 h
# HeLa [1] = assay: Antiproliferative activity against human HeLa cells incubated for 72 hrs by absorbance based assay; assay type: functional, cell-based
# L5178Y = assay: Cytotoxicity against mouse L5178Y; assay type: toxicity, cell-based
# HeLa [2] = assay: Antitumor activity against human HeLa cells assessed as cell growth inhibition incubated for 3 days; assay type: functional, cell-based; conditions: 72 h
# C-33-A [3] = assay: Antitumor activity against human C33A cells assessed as cell growth inhibition incubated for 3 days; assay type: functional, cell-based; conditions: 72 h
# COLO 201 = assay: Antitumor activity against human COL0201 cells assessed as cell growth inhibition incubated for 3 days; assay type: functional, cell-based; conditions: COLO 201, 72 h
# MCF7 [4] = assay: Antitumor activity against human MCF7 cells assessed as cell growth inhibition incubated for 3 days; assay type: functional, cell-based; conditions: MCF7, 72 h
# HeLa [5] = assay: Antitumor activity against human HeLa cells assessed as cell growth inhibition incubated for 5 days by MTT assay; assay type: functional, cell-based; conditions: 120 h
# Ca-Ski = assay: Antitumor activity against human Ca-Ski cells assessed as cell growth inhibition incubated for 5 days by MTT assay; assay type: functional, cell-based; conditions: 120 h
# C-33-A [6] = assay: Antitumor activity against human C-33-A cells assessed as cell growth inhibition incubated for 5 days by MTT assay; assay type: functional, cell-based; conditions: 120 h
# HT-3 = assay: Antitumor activity against human HT-3 cells assessed as cell growth inhibition incubated for 5 days by MTT assay; assay type: functional, cell-based; conditions: HT-3, 120 h
# SiHa = assay: Antitumor activity against human SiHa cells assessed as cell growth inhibition incubated for 5 days by MTT assay; assay type: functional, cell-based; conditions: 120 h
# PANC-1 [7] = assay: Antitumor activity against human PANC-1; assay type: functional, cell-based; conditions: pooled result: one value given for 3 cell lines, strains, targets or settings
# HepG2 = assay: Antitumor activity against human HepG2 incubated for 48 hrs by MTT assay; assay type: functional, cell-based; conditions: HepG2, 48 h
# MCF7 [8] = assay: Antitumor activity against human MCF-7 incubated for 48 hrs by MTT assay; assay type: functional, cell-based; conditions: MCF7, 48 h
# A549 = assay: Antitumor activity against human A549 cells incubated for 72 hrs by MTT assay; assay type: functional, cell-based; conditions: A549, 72 h
# MCF7 [9] = assay: Antitumor activity against human MCF7 cells incubated for 72 hrs by MTT assay; assay type: functional, cell-based; conditions: MCF7, 72 h
# K562 = assay: Antitumor activity against human K562 cells incubated for 24 hrs by CCK-8 assay; assay type: functional, cell-based; conditions: K562, 24 h
# PC-3 = assay: Antitumor activity against human PC-3 cells incubated for 72 hrs by SRB calorimetric assay; assay type: functional, cell-based; conditions: PC-3, 72 h
# PANC-1 [10] = assay: Antitumor activity against human PANC-1 cells incubated for 48 to 72 hrs by MTS Assay; assay type: functional, cell-based
# Capan-2 = assay: Antitumor activity against human Capan-2 cells incubated for 48 to 72 hrs by MTS Assay; assay type: functional, cell-based
# BXPC-3 = assay: Antitumor activity against human BXPC-3 cells incubated for 48 to 72 hrs by MTS Assay; assay type: functional, cell-based
# HeLa [11] = assay: Antitumor activity against human HeLa cells; assay type: functional, cell-based
smiles,measurement,setting,value
CO[C@@H]1CC(=O)N2c3cc(O)cc4c3O[C@H](/C=C/C=C/C[C@H](O)[C@H](C)[C@@H](O)/C(C)=C\CC4)[C@H]12,pIC50,NCI-H1299,< 5.00
same,pIC50,HeLa [1],5.00
COc1cc2c(O)c(c1)NC(=O)C[C@@H](OC)/C=C/C=C/C=C/C[C@H](OC(=O)[C@@H](C)NC(=O)C1CCCCC1)[C@H](C)[C@@H](O)/C(C)=C\CC2,MIC,L5178Y,0.17 µM
CO[C@H]1/C=C/C=C/C=C/C[C@H](OC(=O)[C@@H](C)NC(=O)C2=CCCCC2)[C@H](C)[C@@H](O)/C(C)=C\CCc2cc3c(c(c2O)NC(=O)C1)SCC(=O)N3,pIC50,HeLa [2],8.51
same,pIC50,C-33-A [3],8.51
same,pIC50,COLO 201,8.51
same,pIC50,MCF7 [4],8.51
CO[C@H]1/C=C/C=C/C=C/C[C@H](OC(=O)[C@@H](C)NC(=O)C2CCCCC2)[C@H](C)[C@@H](O)/C(C)=C\CCc2cc3c(c(c2O)NC(=O)C1)SCC(=O)N3,pIC50,HeLa [2],9.07
same,pIC50,C-33-A [3],9.07
same,pIC50,COLO 201,9.07
same,pIC50,MCF7 [4],9.07
C/C1=C/CCc2c(O)c(cc3c2SCC(=O)N3)NC(=O)C[C@@H](O)/C=C/C=C/C=C/C[C@H](O)[C@H](C)[C@H]1O,pIC50,NCI-H1299,< 5.00
same,pIC50,HeLa [1],5.00
CO[C@H]1/C=C/C=C/C=C/C[C@H](O)[C@H](C)[C@@H](OC(=O)[C@@H](C)NC(=O)C2CCCCC2)/C(C)=C\CCC2=C(O)C(=O)C=C(NC(=O)C1)C2=O,pIC50,HeLa [5],6.35
same,pIC50,Ca-Ski,6.35
same,pIC50,C-33-A [6],6.35
same,pIC50,HT-3,6.35
same,pIC50,SiHa,6.35
CO[C@H]1/C=C/C=C/C=C/C[C@H](OC(=O)[C@@H](C)NC(=O)C2=CCCCC2)[C@H](C)[C@@H](O)/C(C)=C\CCc2cc(O)cc(c2)NC(=O)C1,pIC50,PANC-1 [7],7.46
CO[C@H]1/C=C/C=C/C=C/C[C@H](OC(=O)[C@@H](C)NC(=O)C2CC2)[C@H](C)[C@@H](O)/C(C)=C\CCc2cc(O)cc(c2)NC(=O)C1,pIC50,HepG2,< 5.00
same,pIC50,MCF7 [8],< 5.00
CO[C@H]1/C=C/C=C/C=C/C[C@H](OC(=O)[C@@H](C)NC(=O)C2CCC2)[C@H](C)[C@@H](O)/C(C)=C\CCc2cc(O)cc(c2)NC(=O)C1,pIC50,HepG2,5.13
same,pIC50,MCF7 [8],5.13
CO[C@H]1/C=C/C=C/C=C/C[C@H](OC(C)=O)[C@H](C)[C@@H](O)/C(C)=C\CCc2cc(O)cc(c2)NC(=O)C1,pIC50,A549,< 5.00
same,pIC50,MCF7 [9],< 5.00
same,pIC50,K562,< 5.00
CO[C@H]1/C=C/C=C/C=C/C[C@H](OC(=O)[C@@H](C)NC(=O)C2=CCCCC2)[C@H](C)[C@@H](O)/C(C)=C\CCc2c(O)c(cc3c2SCC(=O)N3)NC(=O)C1,pIC50,HeLa [2],7.55
same,pIC50,C-33-A [3],7.55
same,pIC50,COLO 201,7.55
same,pIC50,MCF7 [4],7.55
CO[C@H]1/C=C/C=C/C=C/C[C@H](OC(=O)[C@@H](C)NC(=O)CCCC(C)C)[C@H](C)[C@@H](O)/C(C)=C\CCc2cc(O)cc(c2)NC(=O)C1,pIC50,PC-3,7.00
same,pIC50,PANC-1 [10],7.00
same,pIC50,Capan-2,7.00
same,pIC50,BXPC-3,7.00
CO[C@H]1/C=C/C=C/C=C/C[C@H](O)[C@H](C)[C@@H](O)/C(C)=C\CCC2=CC(=O)C=C(NC(=O)C1)C2=O,MIC,L5178Y,> 10 µM
CO[C@H]1/C=C/C=C/C=C/C[C@H](OC(=O)[C@@H](C)NC(=O)C2CCCCC2)[C@H](C)[C@@H](O)/C(C)=C\CCc2cc(O)c(SC)c(c2O)NC(=O)C1,pIC50,HeLa [11],7.82
CO[C@H]1/C=C/C=C/C=C/C[C@H](OC(=O)[C@@H](C)NC(=O)CC(C)C)[C@H](C)[C@@H](O)/C(C)=C\CCc2cc(O)cc(c2)NC(=O)C1,pIC50,PANC-1 [7],6.77
CO[C@H]1/C=C/C=C/C=C/C[C@H](OC(=O)[C@@H](C)NC(=O)C2CCCC2)[C@H](C)[C@@H](O)/C(C)=C\CCc2cc(O)cc(c2)NC(=O)C1,pIC50,HepG2,≤ 5.17
same,pIC50,MCF7 [8],≤ 5.17
